Numbers after ± are expanded uncertainties.
What was measured:
[1] = mn = molality of the nth substance listed, in mol/kg; conditions: 101 kPa, Liquid; for viscosity: Capillary tube (Ostwald / Ubbelohde) method; for mass density: Pycnometric method
[2] = 101.33 kPa, Liquid; for viscosity: Capillary tube (Ostwald / Ubbelohde) method; for mass density: Pycnometric method

OCCO [1,2-ethanediol] + NC(N)=O
viscosity ([1]; 298.15 K, m2 = 0): 16.2 ± 0.2 mPa·s | viscosity ([1]; 303.15 K, m2 = 0): 14.1 ± 0.2 mPa·s | mass density ([1]; 303.15 K, m2 = 0): 1106.6 ± 1.3 kg/m3 | viscosity ([1]; 308.15 K, m2 = 0): 11.6 ± 0.1 mPa·s | viscosity ([1]; 313.15 K, m2 = 0): 9.75 ± 0.11 mPa·s | mass density ([1]; 313.15 K, m2 = 0): 1099.3 ± 1.3 kg/m3 | viscosity ([1]; 318.15 K, m2 = 0): 7.91 ± 0.1 mPa·s

NC(N)=O [urea] + OCCO
viscosity ([1]; 298.15 K, m1 = 0.877): 17 ± 0.2 mPa·s | viscosity ([1]; 298.15 K, m1 = 1.852): 18.5 ± 0.2 mPa·s | viscosity ([1]; 298.15 K, m1 = 2.939): 20.4 ± 0.3 mPa·s | viscosity ([1]; 298.15 K, m1 = 4.162): 22.1 ± 0.3 mPa·s | viscosity ([1]; 298.15 K, m1 = 5.549): 24 ± 0.3 mPa·s | viscosity ([1]; 298.15 K, m1 = 7.137): 25.7 ± 0.4 mPa·s | mass density ([1]; 298.15 K, m1 = 0.877): 1118.4 ± 1.5 kg/m3 | mass density ([1]; 298.15 K, m1 = 1.852): 1127.9 ± 1.7 kg/m3 | mass density ([1]; 298.15 K, m1 = 2.939): 1137.2 ± 1.9 kg/m3 | mass density ([1]; 298.15 K, m1 = 4.162): 1146.3 ± 2.1 kg/m3 | mass density ([1]; 298.15 K, m1 = 5.549): 1155.3 ± 2.4 kg/m3 | mass density ([1]; 298.15 K, m1 = 7.137): 1164.4 ± 2.6 kg/m3 | viscosity ([1]; 303.15 K, m1 = 0.877): 14.9 ± 0.2 mPa·s | viscosity ([1]; 303.15 K, m1 = 1.852): 16 ± 0.2 mPa·s | viscosity ([1]; 303.15 K, m1 = 2.939): 17.5 ± 0.2 mPa·s | viscosity ([1]; 303.15 K, m1 = 4.162): 18.8 ± 0.3 mPa·s | viscosity ([1]; 303.15 K, m1 = 5.549): 20.2 ± 0.3 mPa·s | viscosity ([1]; 303.15 K, m1 = 7.137): 21.5 ± 0.3 mPa·s | mass density ([1]; 303.15 K, m1 = 0.877): 1114.8 ± 1.5 kg/m3 | mass density ([1]; 303.15 K, m1 = 1.852): 1124.4 ± 1.7 kg/m3 | mass density ([1]; 303.15 K, m1 = 2.939): 1133.7 ± 1.9 kg/m3 | mass density ([1]; 303.15 K, m1 = 4.162): 1142.9 ± 2.1 kg/m3 | mass density ([1]; 303.15 K, m1 = 5.549): 1151.9 ± 2.4 kg/m3 | mass density ([1]; 303.15 K, m1 = 7.137): 1161.1 ± 2.6 kg/m3 | viscosity ([1]; 308.15 K, m1 = 0.877): 12.1 ± 0.2 mPa·s | viscosity ([1]; 308.15 K, m1 = 1.852): 13 ± 0.2 mPa·s | viscosity ([1]; 308.15 K, m1 = 2.939): 14.1 ± 0.2 mPa·s | viscosity ([1]; 308.15 K, m1 = 4.162): 15.1 ± 0.2 mPa·s | viscosity ([1]; 308.15 K, m1 = 5.549): 16.1 ± 0.2 mPa·s | viscosity ([1]; 308.15 K, m1 = 7.137): 17.1 ± 0.3 mPa·s | mass density ([1]; 308.15 K, m1 = 0.877): 1111.1 ± 1.5 kg/m3 | mass density ([1]; 308.15 K, m1 = 1.852): 1120.7 ± 1.7 kg/m3 | mass density ([1]; 308.15 K, m1 = 2.939): 1130 ± 1.9 kg/m3 | mass density ([1]; 308.15 K, m1 = 4.162): 1139.1 ± 2.1 kg/m3 | mass density ([1]; 308.15 K, m1 = 5.549): 1148.1 ± 2.4 kg/m3 | mass density ([1]; 308.15 K, m1 = 7.137): 1157.4 ± 2.6 kg/m3 | viscosity ([1]; 313.15 K, m1 = 0.877): 10.1 ± 0.1 mPa·s | viscosity ([1]; 313.15 K, m1 = 1.852): 10.8 ± 0.1 mPa·s | viscosity ([1]; 313.15 K, m1 = 2.939): 11.6 ± 0.2 mPa·s | viscosity ([1]; 313.15 K, m1 = 4.162): 12.4 ± 0.2 mPa·s | viscosity ([1]; 313.15 K, m1 = 5.549): 13.2 ± 0.2 mPa·s | viscosity ([1]; 313.15 K, m1 = 7.137): 13.9 ± 0.2 mPa·s | mass density ([1]; 313.15 K, m1 = 0.877): 1107.8 ± 1.5 kg/m3 | mass density ([1]; 313.15 K, m1 = 1.852): 1117.4 ± 1.7 kg/m3 | mass density ([1]; 313.15 K, m1 = 2.939): 1126.8 ± 1.9 kg/m3 | mass density ([1]; 313.15 K, m1 = 4.162): 1135.9 ± 2.1 kg/m3 | mass density ([1]; 313.15 K, m1 = 5.549): 1144.9 ± 2.4 kg/m3 | mass density ([1]; 313.15 K, m1 = 7.137): 1154.1 ± 2.6 kg/m3 | viscosity ([1]; 318.15 K, m1 = 0.877): 8.13 ± 0.1 mPa·s | viscosity ([1]; 318.15 K, m1 = 1.852): 8.68 ± 0.11 mPa·s | viscosity ([1]; 318.15 K, m1 = 2.939): 9.31 ± 0.13 mPa·s | viscosity ([1]; 318.15 K, m1 = 4.162): 9.86 ± 0.14 mPa·s | viscosity ([1]; 318.15 K, m1 = 5.549): 10.4 ± 0.2 mPa·s | viscosity ([1]; 318.15 K, m1 = 7.137): 11 ± 0.2 mPa·s | mass density ([1]; 318.15 K, m1 = 0.877): 1103.9 ± 1.5 kg/m3 | mass density ([1]; 318.15 K, m1 = 1.852): 1113.6 ± 1.7 kg/m3 | mass density ([1]; 318.15 K, m1 = 2.939): 1122.9 ± 1.9 kg/m3 | mass density ([1]; 318.15 K, m1 = 4.162): 1132.1 ± 2.1 kg/m3 | mass density ([1]; 318.15 K, m1 = 5.549): 1141 ± 2.4 kg/m3 | mass density ([1]; 318.15 K, m1 = 7.137): 1150.3 ± 2.6 kg/m3

OCCO [1,2-ethanediol]
viscosity ([2]; 298.15 K): 16.2 ± 0.2 mPa·s | viscosity ([2]; 303.15 K): 14.1 ± 0.2 mPa·s | mass density ([2]; 303.15 K): 1106.6 ± 1.3 kg/m3 | viscosity ([2]; 308.15 K): 11.6 ± 0.1 mPa·s | viscosity ([2]; 313.15 K): 9.75 ± 0.11 mPa·s | mass density ([2]; 313.15 K): 1099.3 ± 1.3 kg/m3 | viscosity ([2]; 318.15 K): 7.91 ± 0.1 mPa·s

From the NIST ThermoML archive (doi:10.1021/je5009119)
